Counter-ions that a name gives are not always drawn.
Key:
K562 cells = assay: Cell Titer Glo 2.0 cell viability assay in K562 cells; conditions: 72 hours
HiBiT-tagged MYB protein = assay: HiBiT protein abundance assay, MYB (K562 HiBiT knock-in cells); assay type: cell-based, human; conditions: 24 hours
Procedure: (§1) Compounds described herein were used to screen for effects on quantitative protein abundance using a HiBit assay system (Promega). Quantitative protein abundance was determined by measuring the protein levels of HiBit-tagged protein targets expressed in cell culture via luminescence using the Nano-Glo HiBiT Lytic Detection System, which uses a split complementation assay format to reconstitute NanoBiT enzyme to generate a luminescent signal. A protein abundance assay was developed such that endogenous protein targets could be modified with the HiBiT peptide tag and their abundance could be assessed after compound treatment. Briefly, K562 cell lines containing a HiBiT-modification were treated with various compounds described herein (e.g., compounds of Formulas (I), (II), or (III)). After treatment for 24 hours, the protein abundance of a specific target was determined by measuring luminescence.
(§2) • Promega Nano-Glo HiBiT Lytic Detection System (cat #N3030) • Corning 384-well TC-treated microplates (cat #3570) • Synthego Engineered Cells Knock-In Clones
(§3) Cells were maintained in IMDM with 10% FBS. Before the assay, cells were diluted with […] growth media (IMDM+1% FBS media) and were seeded in a 384-well plate at a density of 10000 cells/well (for each cell line listed in Table 6). Each compound was prepared as a 10-point 3-fold serial dilution in DMSO with the top dose at a final concentration of 10 μM in the well. Unmodified K562 cells were added at the previously specified density with DMSO to serve as an assay baseline and positive control (PC) and DMSO only with the respective modified cell lines was added to the negative control (NC) columns. Final DMSO concentration was kept at or below 0.25%. Treated cell plates were placed in an incubator at 37° C. with 5% CO2 for 24 hours. After 24 hours, 25 μL of Complete HiBit Lytic reagent was added to each well at room temperature (e.g. one plate requiring 10 mL Lytic Buffer, 100 μL LgBiT Protein, 200 μL Lytic Substrate), shaken for 5 minutes at 600 RPM, then left to sit for 10 minutes for signal to stabilize before reading on a Spark Cyto plate reader (Tecan) with a 500 ms measurement time.
(§4) To determine compound effects on protein abundance of each target in Table 6, the percent response for each respective cell line was calculated at each compound concentration as follows:
(§5) For the normalized response at each concentration, a four-parameter logistical regression was fit to the data and the response was interpolated at the 50% value to determine a concentration for protein abundance at 50% (IC50) the untreated control.

HiBiT-tagged HTT protein = assay: HiBiT protein abundance assay, HTT (K562 HiBiT knock-in cells); assay type: cell-based, human; conditions: 24 hours
Procedure: as §1, §2, §3, §4, §5

Target C = assay: HiBiT protein abundance assay, Target C (K562 HiBiT knock-in cells); assay type: cell-based, human; conditions: 24 hours
Procedure: as §2, §3, §4, §5

MYB mRNA = assay: Splicing RT-qPCR assay, MYB canonical (CJ) and alternative (AJ) junction mRNA; assay type: cell-based; conditions: Homo sapiens, A673 or K562 cells, 24 hours
In short: (§6)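 A673 or K562 cells were treated 24 h at 37 °C with compounds in an 11-point 3-fold dilution series (top final 10 uM, DMSO ≤0.25%). Lysates were analysed by one-step RT-qPCR for canonical (CJ) and alternative-exon (AJ) junction isoforms, normalized to GAPDH, GUSB or PPIA.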

HTT mRNA = assay: Splicing RT-qPCR assay, HTT canonical (CJ) and alternative (AJ) junction mRNA; assay type: cell-based; conditions: Homo sapiens, A673 or K562 cells, 24 hours
In short: as §6

[1] = decrease in canonical junction mRNA
[2] = increase in alternative junction mRNA

SMILES | IC50 (HiBiT-tagged MYB protein) [µM] | IC50 (HiBiT-tagged HTT protein) [µM] | IC50 (Target C) [µM] | IC50 (MYB mRNA; [1]) [µM] | IC50 (HTT mRNA; [1]) [µM] | Viability (K562 cells) | AC50 (MYB mRNA; [2]) [µM] | AC50 (HTT mRNA; [2]) [µM]
Cc1cn2cc(NC(=O)c3ccc(C4CCNCC4)c4ccnnc34)cc(F)c2n1 [Compound 103] | < 0.1 | 0.1 to 1 | 1 to 10 | – | – | A (A represents <100 nM) | – | –
Cc1nc2c(F)cc(NC(=O)c3ccc(N4CCNCC4)c4ccnnc34)cc2o1 [Compound 117] | < 0.1 | 0.1 to 1 | 1 to 10 | – | – | B (B represents 100-1000 nM) | – | –
Cc1cn2cc(NC(=O)c3ccc(N4CCNCC4)c4ccnnc34)cc(Cl)c2n1 [Compound 124] | < 0.1 | 1 to 10 | 1 to 10 | – | – | B (B represents 100-1000 nM) | – | –
Cc1cn2cc(NC(=O)c3ccc(N4CCC(N(C)C)CC4)c4nccnc34)cc(F)c2n1 [Compound 158, 8-(4-(dimethylamino)piperidin-1-yl)-N-(8-fluoro-2-methylimidazo[1,2-a]pyridin-6-yl)quinoxaline-5-carboxamide] | 0.1 to 1 | 0.1 to 1 | 1 to 10 | – | – | B (B represents 100-1000 nM) | – | –
Cc1cn2cc(NC(=O)c3ccc(N4CCNCC4)c4ccnnc34)cc(F)c2n1 [Compound 101] | < 0.1 | 0.1 to 1 | 0.1 to 1 | – | – | B (B represents 100-1000 nM) | – | –
CCNC1CCN(c2ccc(C(=O)Nc3cc(F)c4nc(C)cn4c3)c3nnccc23)CC1 [Compound 139, 5-[4-(ethylamino)piperidin-1-yl]-N-{8-fluoro-2-methylimidazo[1,2-a]pyridin-6-yl}cinnoline-8-carboxamide] | < 0.1 | 0.1 to 1 | 1 to 10 | – | – | A (A represents <100 nM) | – | –
Cc1cn2nc(NC(=O)c3ccc(N4CCNCC4)c4ccnnc34)nc2c(C)n1 [Compound 122] | 1 to 10 | 1 to 10 | 1 to 10 | – | – | C (C represents 1000-9999 nM) | – | –
Cc1cn2cc(NC(=O)c3ccc(N4CCC5(CCN5)CC4)c4ccnnc34)cc(F)c2n1 [Compound 171, 5-{1,7-diazaspiro[3.5]nonan-7-yl}-N-{8-fluoro-2-methylimidazo[1,2-a]pyridin-6-yl}cinnoline-8-carboxamide trifluoroacetate] | < 0.1 | 0.1 to 1 | 1 to 10 | – | – | B (B represents 100-1000 nM) | – | –
Cc1cn2cc(NC(=O)c3ccc(N4CCNC(C)C4)c4nccnc34)cc(F)c2n1 (stereo not shown) [Compound 157] | < 0.1 | 1 to 10 | 1 to 10 | – | – | A (A represents <100 nM) | – | –

More lines, main results first:

IC50 (HiBiT-tagged MYB protein) [µM] | IC50 (HiBiT-tagged HTT protein) [µM] | IC50 (Target C) [µM] | IC50 (MYB mRNA; [1]) [µM] | IC50 (HTT mRNA; [1]) [µM] | SMILES | Viability (K562 cells) | AC50 (MYB mRNA; [2]) [µM] | AC50 (HTT mRNA; [2]) [µM]
< 0.1 | > 10 | > 10 | – | – | COc1cnc2c(C(=O)Nc3cc(F)c4nc(C)cn4c3)ccc(N3CCC(N(C)C)CC3)c2n1 [Compound 224, 8-[4-(dimethylamino)piperidin-1-yl]-N-{8-fluoro-2-methylimidazo[1,2-a]pyridin-6-yl}-2-methoxyquinoxaline-5-carboxamide] | B (B represents 100-1000 nM) | – | –
0.1 to 1 | 0.1 to 1 | 0.1 to 1 | – | – | Cc1cnc2c(C(=O)Nc3cc(F)c4nc(C)cn4c3)ccc(N3CCNCC3)c2n1 [Compound 198] | B (B represents 100-1000 nM) | – | –
< 0.1 | 0.1 to 1 | 0.1 to 1 | – | – | Cc1ccc2c(N3CCC4(CCN4)CC3)ccc(C(=O)Nc3cc(F)c4nc(C)cn4c3)c2n1 [Compound 195, 5-{1,7-diazaspiro[3.5]nonan-7-yl}-N-{8-fluoro-2-methylimidazo[1,2-a]pyridin-6-yl}-2-methylquinoline-8-carboxamide] | A (A represents <100 nM) | – | –
1 to 10 | 1 to 10 | 1 to 10 | – | – | CN[C@H]1CCN(c2ccc(C(=O)Nc3cc(F)c4nc(C)cn4c3)c3nc(OC)cnc23)C1 [Compound 203, (S)—N-{8-fluoro-2-methylimidazo[1,2-a]pyridin-6-yl}-3-methoxy-8-[3-(methylamino)pyrrolidin-1-yl]quinoxaline-5-carboxamide; trifluoroacetic acid] | C (C represents 1000-9999 nM) | – | –
< 0.1 | 1 to 10 | 1 to 10 | – | – | Cc1cn2cc(NC(=O)c3ccc(N4CCN[C@H](C)C4)c4nccnc34)cc(F)c2n1 [Compound 188, N-{8-fluoro-2-methylimidazo[1,2-a]pyridin-6-yl}-8-(3-methylpiperazin-1-yl)quinoxaline-5-carboxamide] | B (B represents 100-1000 nM) | – | –
0.1 to 1 | 1 to 10 | 1 to 10 | 0.1 to 1 | 1 to 10 | Cc1cn2cc(NC(=O)c3ccc(N4CCN[C@@H](CO)C4)c4nccnc34)cc(F)c2n1 [Compound 361] | B (B represents 100-1000 nM) | < 0.1 | 1 to 10
